Values of other authors in patent US20220061318A1, “ANTIMICROBIAL PREVENTIVE NETTING” (University of Washington, priority 2020, published 2022).

Conditions: photosensitizer, singlet oxygen generation; riboflavin value depends on the test conditions

## CN(C)c1ccc2nc3ccc(=[N+](C)C)cc-3sc2c1 [Methylene blue, methylene blue]
  quantum yield: 0.52

## O=C1OC2(c3ccccc31)c1cc(I)c(O)c(I)c1Oc1c2cc(I)c(O)c1I [erythrosine]
  quantum yield: around 0.6
